Results published in patent publication US9199967B2, “Substituted heterocyclic amine compounds as cholestryl ester-transfer protein (CETP) inhibitors” (Dr. Reddy's Laboratories Ltd., priority 2011, dated 2015).

biological target: T1, rCETP (Homo sapiens, UniProt P11597); assay: In vitro CETP inhibition assay, fluorometric kit (ROAR Biomedicals); type: biochemical; conditions: rCETP 50 ng, 37° C., 90 minutes, fluorescence Ex 492 nm / Em 516 nm; read-out: IC50 (nM), inhibitory effect on CETP
T1 sequence (P11597 18-493): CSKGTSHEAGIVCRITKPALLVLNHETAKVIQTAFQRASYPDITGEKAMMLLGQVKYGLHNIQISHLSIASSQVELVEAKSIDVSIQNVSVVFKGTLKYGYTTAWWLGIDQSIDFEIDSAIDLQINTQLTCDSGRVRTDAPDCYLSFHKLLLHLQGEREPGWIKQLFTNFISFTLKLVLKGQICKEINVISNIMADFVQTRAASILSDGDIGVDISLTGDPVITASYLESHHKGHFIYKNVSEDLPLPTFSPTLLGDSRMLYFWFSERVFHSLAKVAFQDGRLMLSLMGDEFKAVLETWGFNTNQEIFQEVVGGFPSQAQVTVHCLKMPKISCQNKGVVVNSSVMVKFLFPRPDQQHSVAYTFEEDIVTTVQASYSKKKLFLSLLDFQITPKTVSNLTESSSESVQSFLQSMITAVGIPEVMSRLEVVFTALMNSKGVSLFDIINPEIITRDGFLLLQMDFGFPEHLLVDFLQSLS
Description: An in vitro cholesteryl ester transfer protein inhibition (CETP) assay using a commercially available fluorometric assay kit from ROAR Biomedicals, USA was used to measure the CETP inhibition activity of the compounds of this application. This assay kit uses a donor molecule containing a fluorescent self-quenched neutral lipid that is transferred to an acceptor molecule in the presence of CETP enzyme. The CETP-mediated transfer of the fluorescent neutral lipid to the acceptor molecule results in an increase in fluorescence (Excitation: 492 nm; Emission: 516 nm).
A 20 mM stock solution of compounds were prepared in 100% DMSO and further dilutions were made such that the final concentration of DMSO in the reaction mix was 1%. […] The assay was performed in 96 well microplates and in each well, the reaction mixture contained 190 μl of assay buffer (150 mM NaCl, 10 mM Tris and 2 mM EDTA, pH-7.4), 4 μl of donor particle, 4 IA of acceptor particle, rCETP (50 ng) and 2 μl of test compound at varying final concentration of 0.1, 1, 10, 100, 1000 & 10000 nM. Two control reactions were performed, one without test compound (positive control) and the other without the rCETP (negative control). The reactions were incubated at 37° C. for 90 minutes and the reaction plate was transferred to a PCR machine MX3005P and the fluorescence units (FLU) were quantified (Excitation: 492 nm; Emission: 516 nm).
The negative control values were subtracted from the positive control as well as all the test values to correct for background fluorescence. The percentage inhibition of activity is calculated by using the following equation: % Inhibition of CETP activity=[100−(100×(FLU in test/FLU in positive control))].
The half maximal inhibitory concentration (IC50) was determined using the BIOGRAPH software (version no. 3.3).

In order of falling IC50:
1. CC1(C)CCc2cc(CN(Cc3cc(C(F)(F)F)cc(C(F)(F)F)c3)c3ncc(C(N)=O)cn3)c(N(CC3CC3)CC3CC3)nc21 [Example 9, 2-(((2-(bis(cyclopropylmethyl)amino)-7,7-dimethyl-6,7-dihydro-5H-cyclopenta[b]pyridin-3-yl)methyl)(3,5-bis(trifluoromethyl)benzyl)amino) pyrimidine-5-carboxamide]  ~94 nM
2. CC1CCc2cc(CN(Cc3cc(C(F)(F)F)cc(C(F)(F)F)c3)c3ncc(N4CCOCC4)cn3)c(N(CC3CC3)CC3CC3)nc21 (stereo not drawn) [Example 10, 3-(((3,5-bis(trifluoromethyl)benzyl)(5-morpholinopyrimidin-2-yl)amino)methyl)-N,N-bis(cyclopropylmethyl)-7-methyl-6,7-dihydro-5H-cyclopenta[b]pyridin-2-amine]  ~90 nM
3. CC(=O)c1cnc(N(Cc2cc(C(F)(F)F)cc(C(F)(F)F)c2)Cc2cc3c(nc2N(CC2CC2)CC2CC2)C(C)(C)CC3)nc1 [Example 4, 1-(2-(((2-(bis(cyclopropylmethyl)amino)-7,7-dimethyl-6,7-dihydro-5H-cyclopenta[b]pyridin-3-yl)methyl)(3,5-bis(trifluoromethyl)benzyl)amino)pyrimidin-5-yl)ethanone]  ~50 nM
4. CC1CCCc2cc(CN(Cc3cc(C(F)(F)F)cc(C(F)(F)F)c3)c3ncc(N4CCOCC4)cn3)c(N(CC3CC3)CC3CC3)nc21 (stereo not drawn) [Example 11, 3-(((3,5-bis(trifluoromethyl)benzyl)(5-morpholinopyrimidin-2-yl)amino)methyl)-N,N-bis(cyclopropylmethyl)-8-methyl-5,6,7,8-tetrahydroquinolin-2-amine]  ~40 nM
5. CC1(C)CCc2cc(CN(Cc3cc(C(F)(F)F)cc(C(F)(F)F)c3)c3ncc(-c4ccon4)cn3)c(N(CC3CC3)CC3CC3)nc21 [Example 7, 3-(((3,5-bis(trifluoromethyl)benzyl)(5-(isoxazol-3-yl)pyrimidin-2-yl)amino)methyl)-N,N-bis(cyclopropylmethyl)-7,7-dimethyl-6,7-dihydro-5H-cyclopenta[b]pyridin-2-amine]  ~33 nM
6. CC1(C)CCc2cc(CN(Cc3cc(C(F)(F)F)cc(C(F)(F)F)c3)c3ncc(N4CCCC4=O)cn3)c(N(CC3CC3)CC3CC3)nc21 [Example 2, 1-(2-(((2-(bis(cyclopropylmethyl)amino)-7,7-dimethyl-6,7-dihydro-5H-cyclopenta[b]pyridin-3-yl)methyl)(3,5-bis(trifluoromethyl)benzyl)amino)pyrimidin-5-yl) pyrrolidin-2-one]  ~29 nM
7. CC1(C)CCc2cc(CN(Cc3cc(C(F)(F)F)cc(C(F)(F)F)c3)c3ncc(-c4cc[nH]n4)cn3)c(N(CC3CC3)CC3CC3)nc21 [Example 6, 3-(((5-(1H-pyrazol-3-yl)pyrimidin-2-yl)(3,5-bis(trifluoromethyl)benzyl)amino)methyl)-N,N-bis(cyclopropylmethyl)-7,7-dimethyl-6,7-dihydro-5H-cyclopenta[b]pyridin-2-amine]  ~29 nM
8. CC1(C)CCc2cc(CN(Cc3cc(C(F)(F)F)cc(C(F)(F)F)c3)c3ncc(N4CCOCC4)cn3)c(N(CC3CC3)CC3CC3)nc21 [Example 3, 3-(((3,5-bis(trifluoromethyl)benzyl)(5-morpholinopyrimidin-2-yl)amino)methyl)-N,N-bis(cyclopropylmethyl)-7,7-dimethyl-6,7-dihydro-5H-cyclopenta[b]pyridin-2-amine]  ~20 nM
9. CC1(C)CCc2cc(CN(Cc3cc(C(F)(F)F)cc(C(F)(F)F)c3)c3ccc4[nH]c(=O)oc4c3)c(N(CC3CC3)CC3CC3)nc21 [Example 17, 6-(((2-(bis(cyclopropylmethyl)amino)-7,7-dimethyl-6,7-dihydro-5H-cyclopenta[b]pyridin-3-yl)methyl)(3,5-bis(trifluoromethyl)benzyl)amino)benzo[d]oxazol-2(3H)-one]  ~16 nM
